The test system of one assay is normal pooled plasma. Briefly: Anticoagulation activity, Activated Partial Thromboplastin Time (APTT) test. The settings on record: concentration required to double clotting time. How it is done: The following test measures anticoagulant activity of the oligomers of the present invention and utilizes the Activated Partial Thromboplastin Time (APTT) test, with the following procedures.
To an assay cuvette is added 100 µl of normal pooled plasma (George King Biomedical Inc., Kansas) and […] of a solution containing the test compound in aqueous 50 mM Tris hydrochloride at pH 7.5 (0.2 mg of sample in one ml buffer). The sample is placed in a MLA coagulation timer which automatically maintains the sample at 37°C for 2.5 minutes, 100 µl of actin activated cephaloplastin reagent is injected, kept 5 minutes, 100 µl of 35 mM CaCI is injected, and clot formation is determined photometrically and the clotting time recorded. Each example is examined at a variety of concentrations, generally from about .025 mg/ml to about 1 mg/ml, and the clotting times are graphed as a function of concentration. From the graphic results, the concentration required to double clotting time (ICDCT) is calculated by linear interpolation.

The target of another assay is T1, vWF Binding to Gp1b (Homo sapiens, UniProt P04275+P07359).
T1 construct: multimeric vWF (isolated from human plasma cryoprecipitate); Formalin-fixed platelets, prepared according to the method of MacFarlane; from tissue; host or cells: vWF from human plasma cryoprecipitate; GPIb on formalin-fixed platelets
Description: Inhibition of ristocetin-induced binding of 125I-vWF to formalin-fixed platelets. The settings on record: at 100 µg/ml; ristocetin 1.0 mg/ml. How it is done:
The binding of vWf (vonWillebrand Factor) to glycoprotein Ib is measured in one of two experimental systems, in the presence of either ristocetin or botrocetin as modulators of binding. The ristocetin modulated binding is described herein.
Formalin-fixed platelets, prepared according to the method of MacFarlane, D. et al., Thromb. Diath. Haemorrh. 34, 306-308 (1975), were preincubated at room temperature for 15 minutes with specified dilutions of oligomers according to the present invention. Ristocetin, (Sigma, St. Louis, MO) diluted to a final concentration of 1.0 mg/ml, and ^125I-labelled multimeric vWF (isolated from human plasma cryoprecipitate according to the method of Fulcher, C.A. et al. Proc. Natl. Acad. Sci. USA, 79, 1648-1652 (1982), and labelled according to the method of Fraker, P.J. et al. Biochem. Biophys. Res. Commun., 80, 849-857 (1978)) were then added to the incubation mixture, and the amount of ^125I- vWF bound to the platelets was determined. ^125I-vWF binding to the platelets was referenced against 100% binding which was defined as the amount of ^125I- vWF bound in the absence of added oligomer compound. The method for measuring vWF binding is reported in detail in Ruggeri et al., J. Clin. Invest., 72, 1-12, (1983), herein incorporated by reference.

In assay [1] the target is T2, Human neutrophil elastase (Homo sapiens, UniProt P08246).
T2 construct: purchased ICN Biochemical
T2 sequence (P08246 30-267): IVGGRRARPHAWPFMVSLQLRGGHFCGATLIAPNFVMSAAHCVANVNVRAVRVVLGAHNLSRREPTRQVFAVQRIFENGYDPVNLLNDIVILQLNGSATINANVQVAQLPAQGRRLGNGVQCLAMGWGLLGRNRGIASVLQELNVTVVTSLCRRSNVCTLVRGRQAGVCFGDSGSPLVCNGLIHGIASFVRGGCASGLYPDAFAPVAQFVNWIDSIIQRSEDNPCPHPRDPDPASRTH
Briefly: Human Granulocyte Elastase Inhibition Assay. It is filed as biochemical. The settings on record: substrate S-2484, pH 8.3. How it is done: The Human Granulocyte Elastase Inhibition assay is a standard test procedure and is essentially that of Kramps, et al., "L-Pyroglutamyl-L-prolyl-L-valine-p-nitroanilide, a highly specific substrate for granulocyte elastase", Scand. J. clin. Lab. Invest. 43, 427-432 (1983).
A stock solution of 8.0 mM L-pyroglutamyl-L-prolyl-L-valine-p-nitroanilide (S-2484, obtained from Kabi) in dimethylsulfoxide is diluted to 2.0 mM in 0.03 M Tris buffer, pH 8.3, to give the working substrate solution. Human neutrophil elastase (obtained from ICN Biochemical) is diluted in the same buffer to 1 unit/ml to give the working enzyme solution.
A control assay is run in which a solution of 10 µl of buffer and 10µl of working enzyme solution is incubated at room temperature for 1 minute and 330 µl of buffer and 50 µl of working substrate solution is then added. The increase in absorbance (ΔOD/min) at 405 nm is measured.
In the experimental assay 10µl of a solution containing a compound of the present invention (in concentrations ranging from 1 mg/ml to 0.1 µg/ml), or other inhibitor to be tested, in buffer is substituted for the 10 µl of buffer with which the enzyme is incubated in the control assay and the procedure followed as for the control assay above. The ΔOD/min is measured and the result expressed as percentage inhibition for the given concentration of inhibitor as compared with the ΔOD/min for the control. Percent inhibition versus concentration of compound of the present invention or other inhibitor is plotted and the data extrapolated to give the concentration required for 50% inhibition of the enzyme (IC50).

The subject of assay [2] is Vascular smooth muscle cells (VSMC). Description: Smooth Muscle Cell DNA Synthesis Assay (3H-thymidine incorporation in response to PDGF). Type of assay: cell-based, swine. The settings on record: inhibition of incorporation of 3H-thymidine in response to PDGF (9 ng/ml). How it is done: Vascular smooth muscle cells (VSMC) are isolated from swine coronaries obtained from swine hearts (Hatfield Meat Packing, Hatfield, PA) by enzyme dissociation as described by Gunther, et al., in J. Cell. Biol. 92, 289 (1982). Hyaluronidase (0.5 mg/ml) is added to facilitate dispersal. Cells are maintained in Earle's modified minimal essential medium (EMEM) with D-valine substituted for L-valine, supplemented with Hepes (10 mM), fetal bovine serum (FBS) (10%), penicillin (100 U/ml) and streptomycin ( 100 µg/ml).
The VSMC (passage 2) are plated at a density of 3 x 10^4 /cm2 (1x10^4 cells/well of 96 well tray) and after 48 hours of normal growth are arrested by replacement of above media with serum-free media for 48 hours consisting of: EMEM: Hams F12 (1:1), insulin, 5 µg/ml; transferrin, 35 µg/ml; selenite, 5 ng/ml; antibiotics and buffer (as above). The oligomer of the present invention to be tested (.01-10 µM) is added 2 hours prior to addition of porcine platelet derived growth factor (Research and Diagonostics, Minneapolis, MN), or FBS,in fresh serum-free media. Twenty-four hours later the oligomers are again added preceding addition of growth factors by 2 hours. […]
The VSMC are pulsed (5 hours) with ^3H-thymidine (Amersham, Arlington Heights, IL) (1 µCi/well of a 96 well plate; 42 Ci/mmole) added 15-18 hours after the last dose of growth factor. DNA synthesis is determined in NaOH extraction of ethanol/ether fixed cells as reported by Nemecek, et al., PNAS 83, 674 (1986). The cells are washed with phosphate bufferred saline (200 µl/well of 96-well tray. The cells are incubated with trichloroacetic acid (TCA) (10%, 200 ul) for 5 minutes to remove cytoplasmic label. After a rapid wash with cold 10% TCA, cells are fixed with ethanol/ether (2:1, 200 µl/well 5 min) and dried. The labeled DNA is extracted with 0.5 N NaOH (200 µl/well 30 min incubation, room temperature). The extracted DNA is neutralized (0.5 N HCI) and counted by liquid scintillation.
Statistical evaluation is as reported by Bilder, et al., Am. […] IC50 values are calculated by linear regression (RPL of RS1) from % inhibition of a minimum of 3 log fold dilutions of oligomers in the presence of PDGF (9 ng/ml) which give 70-80% of a maximal PDGF response. […] Percent inhibition is calculated by comparing the effect of PDGF alone (vehicle treated cultures + PDGF minus vehicle treated cultures without PDGF) to the effect of oligomers (oligomer + PDGF minus oligomer alone) and divided by the effect of PDGF times 100. i.e., = % inhibition = ((ΔVehicle + PDGF) - (Δoligomer + PDGF)/(Δvehicle + PDGF)) x 100.

Experimental findings from patent EP0585371B1, “AROMATIC OLIGOMERIC COMPOUNDS USEFUL AS MIMICS OF BIOACTIVE MACROMOLECULES” (RHONE-POULENC RORER INTERNATIONAL (HOLDINGS) INC., priority 1991, dated 1992) are described below.

Several values for one entry are separate records, joined by “and”; a condition that tells them apart may be missing. Identical values can stand only once. Like-named read-outs stand apart in the source and are kept apart here.

T1 sequence (P04275 764-2813 limits assumed): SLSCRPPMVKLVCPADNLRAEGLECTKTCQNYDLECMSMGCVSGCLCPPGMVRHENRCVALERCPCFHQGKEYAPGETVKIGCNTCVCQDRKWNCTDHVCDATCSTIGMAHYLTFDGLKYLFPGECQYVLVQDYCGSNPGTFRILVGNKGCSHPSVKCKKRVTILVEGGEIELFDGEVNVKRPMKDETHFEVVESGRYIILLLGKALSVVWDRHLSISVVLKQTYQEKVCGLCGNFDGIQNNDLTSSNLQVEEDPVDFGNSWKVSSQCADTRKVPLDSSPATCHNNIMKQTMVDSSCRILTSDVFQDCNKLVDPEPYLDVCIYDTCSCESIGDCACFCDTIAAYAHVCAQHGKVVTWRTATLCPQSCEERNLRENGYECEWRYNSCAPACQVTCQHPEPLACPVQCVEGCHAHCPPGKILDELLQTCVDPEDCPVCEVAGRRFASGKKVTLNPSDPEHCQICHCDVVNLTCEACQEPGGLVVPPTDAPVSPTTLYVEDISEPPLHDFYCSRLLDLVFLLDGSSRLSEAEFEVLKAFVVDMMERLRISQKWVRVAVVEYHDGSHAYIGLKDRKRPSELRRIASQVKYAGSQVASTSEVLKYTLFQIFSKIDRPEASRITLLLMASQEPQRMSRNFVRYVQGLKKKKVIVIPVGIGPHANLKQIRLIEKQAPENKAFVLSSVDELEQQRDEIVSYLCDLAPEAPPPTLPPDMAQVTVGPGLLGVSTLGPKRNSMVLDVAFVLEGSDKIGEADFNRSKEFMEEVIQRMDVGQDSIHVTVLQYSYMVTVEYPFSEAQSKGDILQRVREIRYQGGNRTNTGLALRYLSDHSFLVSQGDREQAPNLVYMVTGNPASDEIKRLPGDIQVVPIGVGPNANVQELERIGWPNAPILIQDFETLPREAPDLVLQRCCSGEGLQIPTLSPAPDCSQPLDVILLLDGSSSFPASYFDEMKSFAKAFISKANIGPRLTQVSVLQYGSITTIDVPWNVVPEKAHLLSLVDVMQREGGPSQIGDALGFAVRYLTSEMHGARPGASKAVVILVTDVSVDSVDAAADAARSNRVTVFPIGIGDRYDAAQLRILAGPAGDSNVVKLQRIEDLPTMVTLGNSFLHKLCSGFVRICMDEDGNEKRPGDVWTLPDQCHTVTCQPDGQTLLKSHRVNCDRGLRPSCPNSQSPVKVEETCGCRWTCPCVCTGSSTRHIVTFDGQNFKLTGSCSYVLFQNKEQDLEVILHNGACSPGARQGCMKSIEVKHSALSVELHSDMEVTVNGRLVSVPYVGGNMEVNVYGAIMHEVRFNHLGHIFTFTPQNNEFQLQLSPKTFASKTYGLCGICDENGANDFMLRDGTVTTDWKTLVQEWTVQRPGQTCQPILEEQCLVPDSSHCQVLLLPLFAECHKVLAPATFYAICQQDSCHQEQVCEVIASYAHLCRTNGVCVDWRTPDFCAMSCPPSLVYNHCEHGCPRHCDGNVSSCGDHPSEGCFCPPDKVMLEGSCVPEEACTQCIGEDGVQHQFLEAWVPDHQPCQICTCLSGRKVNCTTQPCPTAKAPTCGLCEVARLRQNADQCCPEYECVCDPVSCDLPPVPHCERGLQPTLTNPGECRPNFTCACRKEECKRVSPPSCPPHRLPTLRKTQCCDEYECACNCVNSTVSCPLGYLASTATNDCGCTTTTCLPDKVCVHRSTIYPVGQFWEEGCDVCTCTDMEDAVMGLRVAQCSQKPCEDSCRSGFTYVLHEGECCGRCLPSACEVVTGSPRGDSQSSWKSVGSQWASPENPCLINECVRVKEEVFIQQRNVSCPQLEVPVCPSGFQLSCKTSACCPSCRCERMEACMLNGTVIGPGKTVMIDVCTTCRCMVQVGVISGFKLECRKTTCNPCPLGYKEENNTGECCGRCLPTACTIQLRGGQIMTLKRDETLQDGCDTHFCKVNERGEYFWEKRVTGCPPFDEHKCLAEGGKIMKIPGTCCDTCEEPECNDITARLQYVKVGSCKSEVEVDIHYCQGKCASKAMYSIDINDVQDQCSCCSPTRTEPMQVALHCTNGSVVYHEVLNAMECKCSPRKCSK
T1 sequence (P07359 17-652): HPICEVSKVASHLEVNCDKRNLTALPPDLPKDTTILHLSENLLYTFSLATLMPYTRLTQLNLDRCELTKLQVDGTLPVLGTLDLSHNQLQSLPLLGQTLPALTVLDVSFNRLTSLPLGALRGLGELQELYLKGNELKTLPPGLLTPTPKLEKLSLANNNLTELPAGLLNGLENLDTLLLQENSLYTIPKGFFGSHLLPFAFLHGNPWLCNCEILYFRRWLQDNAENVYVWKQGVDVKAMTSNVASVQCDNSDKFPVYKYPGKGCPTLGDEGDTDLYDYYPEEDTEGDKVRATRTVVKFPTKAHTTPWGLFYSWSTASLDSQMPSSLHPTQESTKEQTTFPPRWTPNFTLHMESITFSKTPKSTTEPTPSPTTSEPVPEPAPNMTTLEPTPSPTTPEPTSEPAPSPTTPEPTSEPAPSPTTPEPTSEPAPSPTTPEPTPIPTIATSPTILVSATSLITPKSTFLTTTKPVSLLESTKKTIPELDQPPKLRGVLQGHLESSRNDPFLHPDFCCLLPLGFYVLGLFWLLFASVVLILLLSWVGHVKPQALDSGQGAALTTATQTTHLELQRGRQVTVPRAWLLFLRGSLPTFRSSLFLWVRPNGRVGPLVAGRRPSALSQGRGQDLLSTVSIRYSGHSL

As usually defined, the inhibition is the drop in the measured response relative to a control, in per cent. A word on the IC50: it is the point on the concentration scale where inhibition reaches its midpoint. For the compound `O=C(O)CCc1cc(Cc2cc(O)ccc2CCC(=O)O)c(O)cc1CCc1cc(O)c(Cc2cc(O)ccc2CCC(=O)O)cc1CCC(=O)O` [Ex 3, 1,2-bis-[2-(2-carboxyethyl)-4-[2-(2-carboxyethyl)-5-hydroxybenzyl]-5-hydroxyphenyl]ethane], the “APTT ICDCT” value with normal pooled plasma stood at 700 µg/mL. Besides, the inhibition at 100 µg/mL on vWF Binding to Gp1b came to 21%. Moreover, the IC50 in assay [1] (read-out: IC50 (converted)) is above 1400 nM.

As to `O=C(O)COc1cc(Cc2cc(OCc3ccccc3)c(Cc3cc(OCc4ccccc4)c(Cc4cc(O)ccc4OCC(=O)O)cc3OCC(=O)O)cc2OCC(=O)O)c(OCc2ccccc2)cc1CO` [Ex 16, 4-benzyloxy-5-[4-[4-[[2-carboxymethyloxy-5-hydroxy]benzyl]-[5-benzyloxy-2-carboxymethyloxy]benzyl]-[5-benzyloxy-2-carboxymethyloxy]benzyl]-2-hydroxymethylphenoxyacetic acid], the “APTT ICDCT” value in the assay with normal pooled plasma was 360 µg/mL. Besides, the IC50 in assay [1] (read-out: IC50 (converted)) is 330 nM and 327 nM.

With `O=C(O)COc1cc(Cc2cc(O)ccc2OCC(=O)O)c(O)cc1CCc1cc(O)c(Cc2cc(O)ccc2OCC(=O)O)cc1OCC(=O)O` [Ex 17, 1 ,2-bis-[[2-carboxymethyloxy-5-hydroxy-4-(5-hydroxy-2-carboxymethyloxy)benzyl]phenyl]ethane], the “APTT ICDCT” value in the assay on normal pooled plasma is 580 µg/mL. In addition, the IC50 in assay [1] (read-out: IC50 (converted)) is 135 nM and 134 nM.

As for `O=C(O)COc1cc(Cc2cc(OCc3ccccc3)c(Cc3cc(OCc4ccccc4)c(Cc4cc(OCc5ccccc5)c(Cc5cc(OCc6ccccc6)c(Cc6cc(O)ccc6OCC(=O)O)cc5OCC(=O)O)cc4OCC(=O)O)cc3OCC(=O)O)cc2OCC(=O)O)c(OCc2ccccc2)cc1CO` [Ex 19, 4-benzyloxy-5-[4-[4-[4-[4-[[2-carboxymethyloxy-5-hydroxy]benzyl]-[5-benzyloxy-2-carboxymethyloxy]benzyl]-[5-benzyloxy-2-carboxymethyloxy]benzyl]-[5-benzyloxy-2-carboxymethyloxy]benzyl]-[5-benzyloxy-2-carboxymethyloxy]benzyl]-2-hydroxymethylphenoxyacetic acid], the “APTT ICDCT” value in the assay with normal pooled plasma worked out at 345 µg/mL. The compound also came in with an IC50 in assay [2] of 0.3 µM.

As to `O=C(O)COc1cc(Cc2cc(OCc3ccccc3)ccc2OCC(=O)O)c(O)cc1CCc1cc(O)c(Cc2cc(OCc3ccccc3)ccc2OCC(=O)O)cc1OCC(=O)O` [Ex 20, 1,2-bis-[[2-carboxymethyloxy-5-hydroxy-4-(5-benzyloxy-2-carboxymethyloxy)benzyl]phenyl]ethane], the “APTT ICDCT” value with normal pooled plasma came out at 555 µg/mL. Besides, the IC50 in assay [1] was 780 nM and 779 nM.

In the case of `CCc1cc(OCC(=O)O)cc(Cc2cc(OCC(=O)O)cc(Cc3cc(OCC(=O)O)cc(Cc4cc(OCC(=O)O)ccc4OC)c3OC)c2OC)c1OC` [Ex 22, 5-[3-[3-[[5-carboxymethyloxy-2-methoxy]benzyl]-[5-carboxymethyloxy-2-methoxy]benzyl]-[5-carboxymethyloxy-2-methoxy]benzyl]-3-ethyl-4-methoxyphenoxyacetic acid], the “APTT ICDCT” value in the assay with normal pooled plasma was above 315 µg/mL. The IC50 in assay [1] (unit printed in the cell of the nM column, read-out: IC50 (converted)) is above 3e+06 nM.

Take `CCc1cc(OCC(=O)O)cc(Cc2cc(OCC(=O)O)cc(Cc3cc(OCC(=O)O)cc(Cc4cc(OCC(=O)O)cc(Cc5cc(OCC(=O)O)cc(Cc6cc(OCC(=O)O)cc(Cc7cc(OCC(=O)O)cc(Cc8cc(OCC(=O)O)ccc8OC)c7OC)c6OC)c5OC)c4OC)c3OC)c2OC)c1OC` [Ex 23, 5-[3-[3-[3-[3-[3-[3-[[5-carboxymethyloxy-2-methoxy]benzyl]-[5-carboxymethyloxy-2-methoxy]benzyl]-[5-carboxymethyloxy-2-methoxy]benzyl]-[5-carboxymethyloxy-2-methoxy]benzyl]-[5-carboxymethyloxy-2-methoxy]benzyl]-[5-carboxymethyloxy-2-methoxy]benzyl]-[5-carboxymethyloxy-2-methoxy]benzyl]-3-ethyl-4-methoxyphenoxyacetic acid]: the “APTT ICDCT” value in the assay on normal pooled plasma came to 300 µg/mL. In assay [2], this compound yielded an IC50 of 0.3 µM.
